# Experiment: Human HepG2 cell viability assay in 384 well format
# Format: toxicity, cell-based
# Set-up: dose 125 nL, time 70.5 hour; cytotoxicity at 70.5 h: concentration not given beside the values
# Conditions: HepG2 cells, read-out: Inhibition
row,SMILES,cytotoxicity at 70.5 h
1,COc1c(C)cnc(CN2CCC(N(C)C(C)C(N)=O)CC2)c1C (centres undefined),-2.64%
2,Cc1cc2nc(SCC(=O)N3CCOCC3)n(CCC(C)C)c(=O)c2[nH]1,-0.683%
3,Cc1cc(C(=O)N2CCC(Nc3cccnc3)CC2)c(C)s1,2.17%
4,Cc1ccc(CN(C)c2cc(N3CCCC3CO)ncn2)s1 (centres undefined),-4.83%
5,OC(CNCCn1cccn1)c1ccc2c(c1)OCCO2 (centres undefined),-2.85%
6,COCc1nc(C(=O)N2CCCC(n3ccnc3)C2)cs1 (centres undefined),-10%
7,c1ncn(Cc2ccc(CNCc3ccc4c(c3)OCCO4)cc2)n1,-13.3%
8,COc1ccc(C2CCN(C(=O)c3ncccc3OC(C)C)C2)cc1 (centres undefined),11.5%
9,Nc1nccc(C2CCN(CCO)C2)n1 (centres undefined),-21.4%
10,CCC(C)(C)n1nnnc1C(c1cccs1)N1CCc2ccccc21 (centres undefined),-1.64%
11,Cc1ccc(Cl)c(CN2CCN(C)C(C(=O)O)C2)c1F (centres undefined),-5.85%
12,Cc1cc(N2CCC(CO)(CC3CCCCO3)CC2)nc2ccccc12 (centres undefined),-9.32%
13,COCC1CC2(CCN(C(=O)c3cc(C)oc3C)CC2)CN1C(C)C (centres undefined),0.799%
14,Cc1noc(C)c1C(=O)NCC(c1cccc(F)c1)N(C)C (centres undefined),-4.95%
15,c1cncc(OC[C@@H]2CCC[C@@]23CN(Cc2nccs2)CCO3)c1,-2.19%
16,O=C(CCOCc1ccccc1)NS(=O)(=O)N1CCOc2ccccc21,11%
17,CC(C)c1ccc(S(=O)(=O)NC2CCN(CC(F)(F)F)C2)cc1 (centres undefined),16.7%
18,Cc1nn(C)c(NC(=O)C2SCCc3ccccc32)c1C (centres undefined),0.91%
19,O=C(NC[C@H]1CCCC[C@H]1O)c1cccc2[nH]c(-c3ccco3)nc12,15.3%
20,Cc1ccc(C2COCCN2C(=O)c2ccc(C#N)cc2)o1 (centres undefined),-7.82%
21,O=C(Cc1csc(-c2ccccc2)n1)N[C@@H](C(=O)O)c1ccccc1,-9.17%
22,C[C@@H]1C[C@H](C(F)(F)F)n2nc(C3CCN(C(=O)C(C)(C)C)CC3)cc2N1,-6.86%
23,Fc1ccc(-c2cnc(CN3CCCC3Cn3cccn3)o2)cc1 (centres undefined),-8.12%

row,SMILES,cytotoxicity at 70.5 h
1,CCc1ncc(C(=O)N2CCCCC2Cn2cccn2)s1 (centres undefined),-7.11%
2,Cc1cc(N2CCCN3CCC[C@H]3C2)n2nc(C)c(C)c2n1,-4.24%
3,CCOCC1C[C@@H]2OCCN(C(=O)c3ccc[nH]3)[C@H]2C1 (some centres undefined),-6.8%
4,Cc1occc1C(=O)N1CCO[C@H]2[C@H](OCc3ccccn3)CC[C@@H]21,-7.78%
5,CC(C(=O)NCCOc1ccc(F)cc1)n1cncn1 (centres undefined),-14.7%
6,COc1nn(C)cc1C(=O)NCC1(O)CCOCC1,-3.26%
7,O=C(NC1CCN(C2CC2)CC1)c1[nH]nc(C2CC2)c1Cl,-4.43%
8,COc1ccc(CN(C)CC(=O)c2ccc3[nH]c(=O)[nH]c3c2)cc1F,-6.51%
9,COCCN(C(=O)c1c[nH]c2ncccc12)C1CCCC1,0.976%
10,CCc1noc(CN2CCC(NC(=O)c3ccc(C)s3)CC2)n1,-9.12%
11,CCc1noc(CCCC(=O)Nc2cc(C(F)(F)F)c[nH]c2=O)n1,0.169%
12,CC(C)c1ncncc1C(=O)N1CCCN(Cc2cccs2)CC1,-18.9%
13,Cc1nn(C)c(C)c1-c1nc2cc(S(=O)(=O)N3CCCC3)ccc2n1C,-0.406%
14,COCC(=O)N1CCC(Oc2cccc(C)c2)CC1,-16%
15,O=C(NC1CCCN(c2ccc(OC(F)F)cc2)C1)c1cnc[nH]1 (centres undefined),-11.2%
16,Cc1nc(C)n(CC2CN(Cc3ccccc3C#N)CCO2)n1 (centres undefined),-3.74%
17,CC(C)NC(=O)c1nnc2ccc(N3CCOCC3)cc2n1,-5.91%
18,C=C(C)CN(CC)S(=O)(=O)c1ccccc1C#N,-7.47%
19,CCOCCCC(=O)N1CCN(c2cccc(OC)c2)C(C)C1 (centres undefined),12.3%
20,COc1cc2c(cc1OC)S(=O)(=O)N(Cc1ccccc1)C2=O,-14.6%
21,COc1ccccc1OC1(C(=O)O)CCN(c2nc(C)cnc2C)CC1,-6.64%
22,COc1ccc(C(=O)NCCCNc2ncccn2)c(OC)c1,-7.46%
23,Cc1nc(C2CCCN2C(=O)CCn2cncn2)no1 (centres undefined),-3.86%

row,SMILES,cytotoxicity at 70.5 h
1,Cc1ccc(NC2CCN(C(=O)Cc3ccc(C#N)cc3)CC2)nn1,-1.55%
2,O=C1CC2(CCN(S(=O)(=O)c3cccs3)C2)CN1c1ccccc1 (centres undefined),-9.28%
3,CCn1ncc2c1CN(C(=O)c1cc(C)oc1C)CC2COC (centres undefined),-0.428%
4,COc1cccc(COCC(=O)N2CCCC(N3CCCC3)CC2)c1 (centres undefined),3.21%
5,O=c1nc(SCc2cccnc2)c2c(n1CCO)CCCC2,-11%
6,NC(=O)C1CCN(C(=O)NCCNc2ccccn2)CC1,-1.19%
7,CN(C)CCCn1ccnc1C1CCCN(c2cc(N)ncn2)C1 (centres undefined),-4.4%
8,Cc1nc(COCc2cnc3n2CCN(C)C3C)cs1 (centres undefined),-1.73%
9,Cc1cc(NC(=O)Cc2ccccc2O)c[nH]c1=O,-13.3%
10,CN(C)C[C@@H]1CCC[C@@H]2CN(c3nccc(C(F)(F)F)n3)C[C@@H]21,23.3%
11,CN1CCN(CCC(F)(F)C(F)F)CC12CCNC(=O)CC2 (centres undefined),4.17%
12,CN(CC1(CO)CCOCC1)[C@@H]1c2ccccc2C2(CCNCC2)[C@H]1O,19%
13,COc1ccc2c(c1)nc1n2[C@@H](CNCc2cnn(C)c2)COC1,-8.24%
14,Cn1c(=O)c2cc(C(=O)NCCc3ccccc3)ccc2n(C)c1=O,-1.15%
15,CCOC(=O)c1sc2ccsc2c1CNS(C)(=O)=O,-3.52%
16,O=C(Cc1ccccc1)N1CC(=O)N(Cc2ccco2)CC(O)C1 (centres undefined),0.111%
17,CC(C)(C)OCC1CN(Cc2cccs2)S(=O)(=O)c2cnccc2O1 (centres undefined),-2.07%
18,O=C1CC(c2ccc(C(F)(F)F)cc2)c2snc(C(=O)O)c2N1 (centres undefined),-15.6%
19,CNC(=O)[C@H]1CC[C@@H]2[C@@H](CCN2c2ncccn2)O1,3.25%
20,O=C(c1ccccc1F)N1CCN(c2ccc(-n3cccn3)nn2)CC1,0.31%
21,CC(=O)N1CC[C@H]2OCC[C@@H](C(=O)Nc3cccnc3C)[C@@H]2C1,-5.24%
22,N#CCCN(CC1CCCO1)C(=O)c1ccc(C#N)cc1 (centres undefined),-2.77%
23,c1cnn(CC2CCCN2Cc2noc(C3CC3)n2)c1 (centres undefined),-3.73%

row,SMILES,cytotoxicity at 70.5 h
1,CN(C)c1ncccc1CNC(=O)NCC(c1cccs1)N(C)C (centres undefined),-23.8%
2,CNCCNc1nccc(-c2cn(C)nc2C)n1,-5.66%
3,Cc1nnc2ccc(N3CCN(Cc4nccn4C)CC3)nn12,5.33%
4,O=C(Nc1ccc(F)cc1)N1CCC(CO)(Nc2ccccc2)CC1,0.526%
5,O=S(=O)(NCCc1nc(-c2cccnc2)n[nH]1)NCc1ccccc1,-7.05%
6,COc1ccc(-c2noc([C@@H](C)NC(=O)CC(C)C)c2C(=O)O)cc1,-8.52%
7,COc1ccc(Br)cc1CC(=O)Nc1cc(C)n[nH]1,25.5%
8,CCc1c(C)[nH]c(C(C)(C)N)nc1=O,-7.1%
9,CN(C(=O)c1ccco1)C1CCC(NC(=O)OC(C)(C)C)CC1 (centres undefined),-6.4%
10,Cc1nc(CN2CCc3ncnc(-c4ccncc4)c3CC2)cs1,20%
11,COCCNC(=O)c1cnc(N(C)C)nc1C,-5.03%
12,COc1ccccc1OCCC(=O)N1CCCCC1c1nccs1 (centres undefined),0.499%
13,CSC(C)C(=O)NCc1ccc(-n2cncn2)nc1 (centres undefined),-10.2%
14,COCCC(C)NC(=O)Nc1ccc(N2CCOC2=O)c(OC)c1 (centres undefined),-11%
15,O=C1CCc2cc(OCCN3CCc4cncnc4C3)ccc2N1,-3.56%
16,CC(=O)Nc1ncc(S(=O)(=O)Nc2ccccc2)s1,-11.1%
17,O=C(NCc1ccnc(-n2cccn2)c1)C1CC(=O)N(CC2CC2)C1 (centres undefined),-8.83%
18,COCC(=O)NC1CC2(CCN(CCF)CC2)Oc2ccccc21 (centres undefined),-10.9%
19,Cn1cc2ncn(C3CCN(c4ccccc4F)CC3)c(=O)c2n1,-11%
20,OCC1COCCN(c2ncccc2C(F)(F)F)C1 (centres undefined),3.25%
21,Cc1noc(C2CCCN(C(=O)CCCNc3ncccn3)C2)n1 (centres undefined),3.05%
22,COc1ccc(F)c(F)c1CN1CCN(CC(C)C)C(=O)C1C (centres undefined),25%
23,CCc1cnc(N)nc1NCCn1cc(Cl)cn1,-6.52%

row,SMILES,cytotoxicity at 70.5 h
1,Cc1nn(C)c2cnn(Cc3ccc(C(=O)NCC4CC4)o3)c12,-10.2%
2,COc1ccc(-c2ccoc2)cc1CNC1CCCC1,10.7%
3,COc1cc(C2(C(=O)NC3CCN(CC4CC4)CC3)CC2)ccc1C,-6%
4,O=C(CCc1ccco1)N1CCC(Oc2ccccc2)(C(=O)O)CC1,2.91%
5,CNCC(=O)N1CC(c2cc(Nc3nc(C)cs3)nc(C)n2)C1,-12.3%
6,CCc1cnc(N2CC[C@@H]3CN(C(C)=O)CCO[C@@H]3C2)nc1,-2.86%
7,Cc1cc(C)nc(N2CCC(c3cncc(-n4ccnc4)n3)CC2)n1,-6.63%
8,CC(C)N(C)S(=O)(=O)N1CCCC1C(=O)N1CCSCC1 (centres undefined),-0.523%
9,Cc1ccc(C2(O)CCN(Cc3nnc(-c4cccnc4)o3)CC2)nc1,-2.19%
10,Cc1nc(-c2cc(C(=O)NCC(C)(C)CO)c3ccccn23)cs1,5.35%
11,CC(C)C(=O)NCC(=O)N(C)C1CCCN(CCc2ccccc2)C1 (centres undefined),-5.89%
12,O=C(NCc1ccco1)N1CCCCC1c1nc(C2CC2)no1 (centres undefined),-7.19%
13,COc1ccccc1Cc1cc(O)nc(NC(C)CN(C)C)n1 (centres undefined),2.81%
14,N#CC1(NC(=O)c2ccc(F)cc2OC(F)F)CCOCC1,-10.6%
15,CCC(C)(C)NC(=O)Nc1nnc(-c2ccccn2)s1,-10.1%
16,CC(C)CNC(=O)N1C[C@H]2CC[C@@]3(N=C(c4ccccc4)NC3=O)[C@H]2C1,-0.00686%
17,CC(=O)NC1CCCN(C(=O)CCc2cccnc2)C1 (centres undefined),19.2%
18,O=C(Cc1cccs1)N1Cc2nc(CN3CCCC3)oc2C1,13%
19,CN1CCn2c(-c3cccc(F)c3)cnc2C12CCN(CC1CC1)CC2,4.4%
20,COc1cc(C(=O)N(Cc2cnn(C)c2)C(C)C)ccc1OCC(N)=O,4.9%
21,COc1nc2c(cc1C(=O)NCCc1nc3c(s1)CCC3)CCC2,3.25%
22,CCCOC(C)Cn1ccc2[nH]c(=O)c(C#N)cc2c1=O (centres undefined),10.5%
